Experimental data from patent US20230021483A1, “[…] […] METHOD AND CLASSIFICATION OF PHARMACEUTICAL COMPONENTS BY USING TRANSCRIPTOMES” (National Institutes of Biomedical Innovation, Health and …, priority 2016, published 2023).

Tested on: preferentially upregulated genes in LV, SP, LN
Test: Z-score-based differential gene expression analysis (adjuvant group- or adjuvant-associated genes, 40 module mapping, TargetMine annotation)
Assay type: in vivo, C57BL/6 mice
Conditions: ID; for Adar 1425405_a_at (Group G1, Modules 20) / Adar 1434268_at (Group G1, Modules 20) / Ddx58 1436562_at (Group G1, Modules 20) / Ddx58 1456890_at (Group G1, Modules 20) / Eif2ak2 1422005_at (Group G1, Modules 20) / G3bp2 1421323_a_at (Group G1, Modules 20) / Gm9706///Isg15 1431591_s_at (Group G1, Modules 20) / H2-T10///H2-T22///H2-T9 1449875_s_at (Group G1, Modules 20) / Ifih1 1426276_at (Group G1, Modules 20) / Ifit1 1450783_at (Group G1, Modules 20) / Ifit3 1449025_at (Group G1, Modules 20) / Irf7 1417244_a_at (Group G1, Modules 20) / Irgm1 1418825_at (Group G1, Modules 20) / Mndal 1426906_at (Group G1, Modules 20) / Pml 1448757_at (Group G1, Modules 20) / Pml 1456103_at (Group G1, Modules 20) / Rnf213 1455500_at (Group G1, Modules 20) / Rsad2 1436058_at (Group G1, Modules 20) / Shisa5 1423986_a_at (Group G1, Modules 20) / Shisa5 1437503_a_at (Group G1, Modules 20) / Stat1 1450033_a_at (Group G1, Modules 20) / Stat1 1450034_at (Group G1, Modules 20) / Tdrd7 1426716_at (Group G1, Modules 20) / Tor1aip2 1418115_s_at (Group G1, Modules 20) / Tor1aip2 1418116_at (Group G1, Modules 20) / Tor1aip2 1435526_at (Group G1, Modules 20) / Trim12a 1437432_a_at (Group G1, Modules 20) / Uba7 1426970_a_at (Group G1, Modules 20): LV
How it was run: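 Per-sample fold-change values converted to gene-wise z-scores within each organ's data set, then triplicate z-scores summed per adjuvant. Genes with summed score >3 taken as preferentially expressed; gene groups defined by combined per-adjuvant z-score thresholds (z>1 to z>3) specific to each organ.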

Substance: K3: B class CpG ODN (ATCGACTCTCGAGCGTTCTC), TLR9 ligand (chemistry not given here)
- z sum, 1457035_at Al607873 (LN, Module#(LN) 40): −0.26
- Adar 1425405_a_at (Group G1, Modules 20) (sample x1): −0.3
- Adar 1434268_at (Group G1, Modules 20) (sample x1): −0.6
- Ddx58 1436562_at (Group G1, Modules 20) (sample x1): −0.3
- Ddx58 1456890_at (Group G1, Modules 20) (sample x1): −0.4
- Eif2ak2 1422005_at (Group G1, Modules 20) (sample x1): −0.5
- G3bp2 1421323_a_at (Group G1, Modules 20) (sample x1): −0.4
- Gm9706///Isg15 1431591_s_at (Group G1, Modules 20) (sample x1): −0.5
- H2-T10///H2-T22///H2-T9 1449875_s_at (Group G1, Modules 20) (sample x1): −0.3
- Ifih1 1426276_at (Group G1, Modules 20) (sample x1): −0.4
- Ifit1 1450783_at (Group G1, Modules 20) (sample x1): −0.5
- Ifit3 1449025_at (Group G1, Modules 20) (sample x1): −0.5
- Irf7 1417244_a_at (Group G1, Modules 20) (sample x1): −0.4
- Irgm1 1418825_at (Group G1, Modules 20) (sample x1): −0.5
- Mndal 1426906_at (Group G1, Modules 20) (sample x1): −0.3
- Pml 1448757_at (Group G1, Modules 20) (sample x1): −0.4
- Pml 1456103_at (Group G1, Modules 20) (sample x1): −0.5
- Rnf213 1455500_at (Group G1, Modules 20) (sample x1): −0.5
- Rsad2 1436058_at (Group G1, Modules 20) (sample x1): −0.5
- Shisa5 1423986_a_at (Group G1, Modules 20) (sample x1): −0.5
- Shisa5 1437503_a_at (Group G1, Modules 20) (sample x1): −0.5
- Stat1 1450033_a_at (Group G1, Modules 20) (sample x1): −0.5
- Stat1 1450034_at (Group G1, Modules 20) (sample x1): −0.4
- Tdrd7 1426716_at (Group G1, Modules 20) (sample x1): −0.3
- Tor1aip2 1418115_s_at (Group G1, Modules 20) (sample x1): −0.3
- Tor1aip2 1418116_at (Group G1, Modules 20) (sample x1): −0.4
- Tor1aip2 1435526_at (Group G1, Modules 20) (sample x1): −0.4
- Trim12a 1437432_a_at (Group G1, Modules 20) (sample x1): −0.6
- Uba7 1426970_a_at (Group G1, Modules 20) (sample x1): −0.2
- Adar 1425405_a_at (Group G1, Modules 20) (sample x2): −0.7
- Adar 1434268_at (Group G1, Modules 20) (sample x2): −0.5
- Ddx58 1436562_at (Group G1, Modules 20) (sample x2): −0.4
- Ddx58 1456890_at (Group G1, Modules 20) (sample x2): −0.4
- Eif2ak2 1422005_at (Group G1, Modules 20) (sample x2): −0.5
- G3bp2 1421323_a_at (Group G1, Modules 20) (sample x2): −0.5
- Gm9706///Isg15 1431591_s_at (Group G1, Modules 20) (sample x2): −0.5
- H2-T10///H2-T22///H2-T9 1449875_s_at (Group G1, Modules 20) (sample x2): −0.5
- Ifih1 1426276_at (Group G1, Modules 20) (sample x2): −0.4
- Ifit1 1450783_at (Group G1, Modules 20) (sample x2): −0.5
- Ifit3 1449025_at (Group G1, Modules 20) (sample x2): −0.5
- Irf7 1417244_a_at (Group G1, Modules 20) (sample x2): −0.4
- Irgm1 1418825_at (Group G1, Modules 20) (sample x2): −0.6
- Mndal 1426906_at (Group G1, Modules 20) (sample x2): −0.3
- Pml 1448757_at (Group G1, Modules 20) (sample x2): −0.6
- Pml 1456103_at (Group G1, Modules 20) (sample x2): −0.6
- Rnf213 1455500_at (Group G1, Modules 20) (sample x2): −0.5
- Rsad2 1436058_at (Group G1, Modules 20) (sample x2): −0.5
- Shisa5 1423986_a_at (Group G1, Modules 20) (sample x2): −0.5
- Shisa5 1437503_a_at (Group G1, Modules 20) (sample x2): −0.3
- Stat1 1450033_a_at (Group G1, Modules 20) (sample x2): −0.5
- Stat1 1450034_at (Group G1, Modules 20) (sample x2): −0.5
- Tdrd7 1426716_at (Group G1, Modules 20) (sample x2): −0.6
- Tor1aip2 1418115_s_at (Group G1, Modules 20) (sample x2): −0.3
- Tor1aip2 1418116_at (Group G1, Modules 20) (sample x2): −0.5
- Tor1aip2 1435526_at (Group G1, Modules 20) (sample x2): −0.5
- Trim12a 1437432_a_at (Group G1, Modules 20) (sample x2): −0.5
- Uba7 1426970_a_at (Group G1, Modules 20) (sample x2): −0.3
